Measured values from article PMC8476055, “Synthesis and Biological Activity of Triterpene–Coumarin Conjugates” (Journal of Natural Products, 2021).
Each block holds one molecule with its values, some of them ahead of it.

Legend:
[1] = tested on: Hep G2 human hepatocyte carcinoma cells; assay: MTT cell proliferation assay, Hep G2 cells; format: cell-based; conditions: HepG2, 72 h treatment, untreated control = 100% viability, read-out: IC50, growth inhibition of Hep G2 cells
Procedure: These studies were performed using a 3-(4,5-dimethylthiazol-2-yl)-2,5-diphenyltetrazolium bromide (MTT) assay, with increasing concentration levels of each compound (0–200 μg/mL). Cell viability was determined after treatment for 72 h, by absorption of a formazan dye.
[…] ATTC HTB-38), Hep G2 human hepatocyte carcinoma cells (ECACC 85011430), nontumor human epithelial lung fibroblast cells HPF (ScienCell catalog (cat.) no. 3300), nontumor rat ileum cells IEC-18 (ECACC no. 88011801), and nontumor human embryo liver cells (ECACC 89121403) were cultured in DMEM medium supplemented with 2 mM glutamine, 10% heat-inactivated fetal bovine serum (FCS), 10.000 units/mL penicillin, and […]. These cells were incubated at 37 °C in an atmosphere of 5% CO2 and 95% humidity. The culture media were changed every 48 h, and the confluent cultures were separated with a trypsin solution (0.25% EDTA). Subconfluent monolayer cells were used in all experiments. All cell lines used were provided by the cell bank of the University of Granada (Spain).
The effect of the synthesized compounds on the viability of tumor cells was assessed using an MTT assay, based on the ability of living cells to cleave the tetrazolium ring, thus producing formazan, which absorbs at 570 nm. […] For an evaluation of the cytotoxic effects of these compounds, the cells were seeded in 96-well plates at an initial density of 5 × 10^3 B16–F10 cells, 6 × 10^3 HT29 cells, 15 × 10^3 Hep G2 cells, 8 × 10^3 HPF cells, 15 × 10^3 IEC-18 cells, and 11 × 10^3 WRL68 cells, per well. After incubation for 24 h, the cells were treated with the synthesized compounds in triplicate, at different concentrations (0–200 μg/mL), and incubated for 72 h. Thereafter, 100 μL of MTT solution (0.5 mg/mL) were added to each well. After 2 h of incubation, the cells were washed twice with phosphate buffered saline (PBS), and the formazan was resuspended in 100 μL of DMSO. Relative cell viability, with respect to untreated control cells, was measured by absorbance at 550 nm on an ELISA plate reader (Tecan Sunrise MR20-301, TECAN, Austria). […] These experiments were measured and compared to the control after 72 h of treatment.

HT29 cells [2] = assay: Mitochondrial-membrane potential (Rh123) flow cytometry, HT29; format: cell-based, human; conditions: HT29, 72 h at IC50 concentration
Procedure: The study of the loss of the mitochondrial-membrane potential (MMP) of tumor cells, when treated with drugs, can provide information on the activation mechanism of apoptosis. This activation can occur extrinsically when MMP is not altered, and intrinsically when a loss of this potential is caused by mitochondrial disruption. […] The values of percentage of cell population were expressed as means ± SEM of at least two experiments in duplicate. Changes in MMP were analyzed by monitoring cell fluorescence after staining with rhodamine 123 (Rh123).
The electrochemical gradient across the mitochondrial membrane was examined by analytical flow cytometry, using dihydrorhodamine (DHR), which in contact with living cells, oxidized to form highly fluorescent rhodamine 123 (Rh123). The fluorescence emitted can be monitored by fluorescence spectroscopy using excitation and emission wavelengths of 500 and 536 nm, respectively. […] Following treatment, the culture medium was renewed with fresh medium by adding 0.5 mL of DHR, for a final concentration of […]. Cells were incubated for 1 h at 37 °C in an atmosphere of 5% CO2 and 95% humidity and subsequently washed and resuspended in PBS. The fluorescence intensity was measured using a FACScan flow cytometer (fluorescence-activated cell sorter). The experiments were performed three times with two replicates per assay.

Hep G2 cells = assay: Cell-cycle distribution by PI flow cytometry, Hep G2; format: cell-based, human; conditions: Hep G2, 72 h at IC50 concentration
Procedure: (§1) Based on the cytotoxicity shown by derivatives 1, 4, 7, and 10, a study was made concerning their effects on the distribution of the cell cycle in order to determine possible cytostatic effects caused by the cytotoxic response. The percentages of cells in the different phases of the cycle were analyzed at 72 h, by the incorporation of propidium iodide. […] The values of cell percentage were expressed as means ± SEM of at least two independent experiments performed in triplicate. Flow cytometry was also used to measure DNA ploidy and alterations in cell-cycle profiles. The DNA content is proportional to the fluorescence of propidium iodide, enabling the percentage of cells to be determined in each phase of the cycle and the cell subpopulations with different DNA contents to be visualized.
(§2) The method used to quantify the amount of DNA in the different phases of the cell cycle (G0/G1, S, and G2/M) was performed by flow cytometry, using a fluorescence-activated cell sorter (FACS) at 488 nm in an Epics XL flow cytometer (Coulter Corporation, Hialeah, FL, USA). For this assay, 5 × 10^4 B16–F10, 6 × 10^4 HT29 cells, and 15 × 10^4 Hep G2 cells were placed in 24-well plates with 1.5 mL of medium and incubated for 24 h. After this time, the cells were treated with the different selected compounds for 72 h at their corresponding IC50 concentrations. After treatment, the cells were washed twice with PBS, trypsinized, and resuspended in 1X TBS (10 mM Tris and 150 mM NaCl); thereafter, Vindelov buffer (100 mM Tris, 100 mM NaCl, 10 mg/mL Rnase, and 1 mg/mL PI, at pH 8) was added. Cells were stored on ice and, just before measurement, were stained with 10 μL of 1 mg/mL PI solution. Approximately, 10 × 10^3 cells were analyzed in each experiment. The experiments were performed three times with two replicates per assay.

B16–F10 cells = assay: Cell-cycle distribution by PI flow cytometry, B16–F10; format: cell-based, murine; conditions: B16–F10, 72 h at IC50 concentration
Procedure: as §1, §2

HT29 cells [3] = assay: Cell-cycle distribution by PI flow cytometry, HT29; format: cell-based, human; conditions: HT29, 72 h at IC50 concentration
Procedure: as §1, §2

melting point: 69 to 71 °C
SMILES: CC1(C)CC[C@]2(C(=O)NCCCNC(=O)c3cc4ccccc4oc3=O)CC[C@]3(C)C(=CC[C@@H]4[C@@]5(C)C[C@@H](O)[C@H](O)C(C)(C)[C@@H]5CC[C@]43C)[C@@H]2C1 [Compound 1, 2α,3β-Dihydroxy-N-(3′-(2″-oxo-2″H-chromene-3″-carboxamido)propyl)olean-12-en-28-amide]
IC50 [1]: > 10 µM
Rh123 staining (mitochondrial-membrane potential) (HT29 cells [2]): positive Rh123 staining
percentage of cells in the G0/G1 phase (Hep G2 cells): greater than 70%

melting point: 143 to 145 °C
SMILES: CC1(C)CC[C@]2(C(=O)NCCCNC(=O)Cc3cc(=O)oc4cc(O)ccc34)CC[C@]3(C)C(=CC[C@@H]4[C@@]5(C)C[C@@H](O)[C@H](O)C(C)(C)[C@@H]5CC[C@]43C)[C@@H]2C1 [Compound 4, 2α,3β-Dihydroxy-N-(3′-(2″-(7‴-hydroxy-2‴-oxo-2‴H-chromen-4‴-yl)acetamido)propyl)olean-12-en-28-amide]
IC50 [1]: > 10 µM
Rh123 staining (mitochondrial-membrane potential) (HT29 cells [2]): positive Rh123 staining
percentage of cells in the G0/G1 phase (B16–F10 cells): greater than 70%
percentage of cells in the G0/G1 phase (HT29 cells [3]): greater than 70%
percentage of cells in the G0/G1 phase (Hep G2 cells): greater than 70%

melting point: 123 to 125 °C
SMILES: CC1(C)CC[C@]2(C(=O)NCCCNC(=O)/C=C/c3ccc(O)cc3)CC[C@]3(C)C(=CC[C@@H]4[C@@]5(C)C[C@@H](O)[C@H](O)C(C)(C)[C@@H]5CC[C@]43C)[C@@H]2C1 [Compound 7, 2α,3β-Dihydroxy-N-(3′-((E)-3″-(4‴-hydroxyphenyl)acrylamido)propyl)olean-12-en-28-amide]
IC50 [1]: 8.8 ± 0.4 µM
Rh123 staining (mitochondrial-membrane potential) (HT29 cells [2]): positive Rh123 staining
percentage of cells in the G0/G1 phase (B16–F10 cells): greater than 70%
percentage of cells in the G0/G1 phase (HT29 cells [3]): greater than 70%
percentage of cells in the G0/G1 phase (Hep G2 cells): greater than 70%

melting point: 200 to 202 °C
SMILES: CC1(C)CC[C@]2(C(=O)O)CC[C@]3(C)C(=CC[C@@H]4[C@@]5(C)C[C@@H](OC(=O)c6cc7ccccc7oc6=O)[C@H](OC(=O)c6cc7ccccc7oc6=O)C(C)(C)[C@@H]5CC[C@]43C)[C@@H]2C1 [Compound 10]
IC50 [1]: 0.9 µM
Rh123 staining (mitochondrial-membrane potential) (HT29 cells [2]): positive Rh123 staining
percentage of cells in the G0/G1 phase (B16–F10 cells): greater than 70%
percentage of cells in the G0/G1 phase (HT29 cells [3]): greater than 70%
percentage of cells in the G0/G1 phase (Hep G2 cells): greater than 70%
